In US12667565B2, “Use of composition for enhancing anticancer effect, comprising ERRy inhibitor as active ingredient” (NOVMETAPHARMA CO., LTD., priority 2019, dated 2026):

Key:
Huh7-SR cell line [1] = experiment: ROS generation measured by FACS with H2-DCF-DA; assay type: cell-based; details: DN200434 12 μM and sorafenib 10 μM, 24 hours, FIG. 3A
Protocol: (§1) The present inventors have performed experiments using sorafenib-resistant liver cancer cell lines (Huh7-SR and SK-Hep-R cell lines) and a liver cancer cell line-derived animal model (xenograft). To determine an effect of the synthetic compound DN200434, which is an inverse agonist against ERRγ, on the proliferation of liver cancer cells and ROS generation, ROS was measured using a cell count and 2′,7-dichlorofluorescin diacetate (DCF-DA). […]
(§2) In order to investigate an effect of the compound (DN200434) represented by Formula 1, which is an inverse agonist against ERRγ, on ROS generation in sorafenib-resistant liver cancer cells, the effect was measured by FACS using 2′,7′-dichlorohydrofluorescein diacetate (H2-DCF-DA; Invitrogen, USA) as an ROS probe. […] Then, the cells were incubated for 30 minutes, and washed with PBS, and data was collected using a BD Accuri™ C6 flow cytometer (BD Bioscience, USA), and analyzed using an Accuri™ C6 analysis program (BD Bioscience, USA). To determine the number of cells, the sorafenib-resistant liver cancer cell line was treated with the DN200434 compound (12 μM) in combination with sorafenib (10 μM), and stained with trypan blue, and the number of cells was then measured using a hemocytometer.

SK-Hep-R cell line [2] = experiment: ROS generation measured by FACS with H2-DCF-DA; assay type: cell-based; details: DN200434 12 μM and sorafenib 10 μM, 24 hours, FIG. 3B
Protocol: as §1, §2

[3] = test system: Huh7-R sorafenib-resistant liver cancer cell line; experiment: Cell proliferation (trypan blue cell count, hemocytometer); assay type: cell-based; details: FIG. 4A
Protocol: (§3) The present inventors have performed experiments using sorafenib-resistant liver cancer cell lines (Huh7-SR and SK-Hep-R cell lines) and a liver cancer cell line-derived animal model (xenograft). To determine an effect of the synthetic compound DN200434, which is an inverse agonist against ERRγ, on the proliferation of liver cancer cells and ROS generation, ROS was measured using a cell count and 2′,7-dichlorofluorescin diacetate (DCF-DA). Finally, after a sorafenib-resistant liver cancer cell line was injected into […] to induce the formation of sorafenib-resistant liver cancer, changes in size of liver cancer were confirmed in the group injected with the inverse agonist against ERRγ (DN200434) and sorafenib and the group injected with the control drug.
(§4) In order to investigate an effect of the compound (DN200434) represented by Formula 1, which is an inverse agonist against ERRγ, on ROS generation in sorafenib-resistant liver cancer cells, the effect was measured by FACS using 2′,7′-dichlorohydrofluorescein diacetate (H2-DCF-DA; Invitrogen, USA) as an ROS probe. Drug-resistant cells were treated with sorafenib (10 μM) and the DN200434 compound (12 μM) for 24 hours, and 10 μM H2-DCF-DA was added to the cells. Then, the cells were incubated for 30 minutes, and washed with PBS, and data was collected using a BD Accuri™ C6 flow cytometer (BD Bioscience, USA), and analyzed using an Accuri™ C6 analysis program (BD Bioscience, USA). To determine the number of cells, the sorafenib-resistant liver cancer cell line was treated with the DN200434 compound (12 μM) in combination with sorafenib (10 μM), and stained with trypan blue, and the number of cells was then measured using a hemocytometer.

[4] = test system: SK-Hep-R sorafenib-resistant liver cancer cell line; experiment: as above; assay type: cell-based; details: FIG. 4B
Protocol: as §3, §4

[5] = test system: sorafenib-resistant liver cancer cell line Huh7-R; experiment: Sorafenib-resistant liver cancer animal model (xenograft); assay type: in vivo, mice
Protocol: as §3
(§5) The sorafenib-resistant liver cancer cell line Huh7-R was injected into mice in order to construct a sorafenib-resistant liver cancer animal model (xenograft). Thereafter, the inverse agonist against ERRγ (e.g., DN200434 (Formula 1)) was administered in combination with sorafenib, and the size change of the formed mass was measured. In this case, the group in which the sorafenib-resistant liver cancer-derived animal model was treated with sorafenib alone was used as the comparative control.

[6] = test system: sorafenib-resistant liver cancer cell line SK-Hep-R; experiment: as above; assay type: in vivo, mice
Protocol: as §3, §5
An animal model derived from the sorafenib-resistant liver cancer cell line SK-Hep-R was constructed in the same manner as described above, and the effect of co-administration of the DN200434 compound represented by Formula 1, which is an inverse agonist against ERRγ, and sorafenib was confirmed.

Huh7-SR cell line [7] = experiment: Cell death by sorafenib (annexin/PI FACS, cleaved caspase-3); assay type: cell-based; details: Huh7-SR cells; FIGS. 1A to 1C
Protocol: (§6) Hepatocarcinoma cell lines [Huh7 cells (Korea Cell Line Bank (KCLB) No. 60104), SK-Hep cells (ATCC® HTB-52™)] were continuously exposed to sorafenib (gradually increasing to 10 μM) to construct sorafenib-resistant liver cancer cell lines (Huh7-SR and SK-Hep-R cell lines). To evaluate the cancer cell death by FACS, first, a cancer cell line was incubated in FITC-bound annexin and propidium iodide (PI) for 15 minutes, and annexin and PI binding were then measured by flow cytometry to acquire data using a BD Accuri C6 flow cytometer (BD Biosciences) and analyzed with the Accuri C6 analysis program (BD Biosciences)/FlowJo software (FlowJo, LLC.). Cancer cell line death was evaluated using a cleaved caspase-3 antibody (Cell Signaling Technology).

SK-Hep-R cell line [8] = experiment: as above; assay type: cell-based; details: SK-Hep-R cells; FIGS. 1A to 1C
Protocol: as §6

[9] = DN200434 12 μM in combination with sorafenib 10 μM

| SMILES | ROS (Huh7-SR cell line [1]) | ROS (SK-Hep-R cell line [2]) | cell proliferation [3, 9] | cell proliferation [4, 9] | body weight change ([5]; in combination with sorafenib vs sorafenib-alone control, FIG. 5D) | tumor size ([5]; in combination with sorafenib, compared to sorafenib-alone control, FIG. 5A) | tumor weight ([5]; in combination with sorafenib, compared to sorafenib-alone control, FIG. 5B) | tumor volume ([5]; in combination with sorafenib, compared to sorafenib-alone control, FIG. 5C) | body weight change ([6]; in combination with sorafenib vs sorafenib-alone control, FIG. 6D) | tumor size ([6]; in combination with sorafenib, compared to sorafenib-alone control, FIG. 6A) | tumor weight ([6]; in combination with sorafenib, compared to sorafenib-alone control, FIG. 6B) | tumor volume ([6]; in combination with sorafenib, compared to sorafenib-alone control, FIG. 6C) | cell death by sorafenib (Huh7-SR cell line [7]) | cell death by sorafenib (SK-Hep-R cell line [8]) | cell proliferation ([3]; sorafenib alone) | cell proliferation ([4]; sorafenib alone) |
| --- | --- | --- | --- | --- | --- | --- | --- | --- | --- | --- | --- | --- | --- | --- | --- | --- |
| CC(C)N1CCN(c2ccc(/C(=C(/CCCO)c3ccccc3)c3ccc(O)cc3)cc2)CC1 [DN200434] | increase | increase | significantly decreased | significantly decreased | no difference | significantly decreased | significantly decreased | significantly decreased | no difference | remarkably decreased | remarkably decreased | remarkably decreased |  |  |  |  |
| CNC(=O)c1cc(Oc2ccc(NC(=O)Nc3ccc(Cl)c(C(F)(F)F)c3)cc2)ccn1 [sorafenib, reference compound] |  |  |  |  |  |  |  |  |  |  |  |  | did not increase | did not increase | not affected | not affected |
